{
  "source": "paper PMC8502973",
  "about": "(Frontiers in Physiology, 2021)",
  "key": {"Toxicity / mortality": {"test": "Toxicity / mortality", "type": "in vivo"}, "[1]": {"conditions": "sc and iv, rodents; ref Modi et al., 2016; cited from earlier work"}, "[2]": {"test": "Long-term (28-day) drug intervention: body weight", "type": "in vivo, male DIO Sprague Dawley rats", "conditions": "treatment days 9-28", "experimental": "(§1) Sprague Dawley rats (male, ∼4 weeks of age, 51–75 g body weight) were switched from standard chow to a high fat diet (Research Diets, Diet # D12492, 60, 20, 20%kcal from fat, protein, and carbohydrate, respectively, 5.21 kcal/g; stored at −20°C). The rats were maintained on this diet for approximately 15 weeks prior to the start of experiments to develop a diet-induced overweight (DIO) model. Animals were individually housed on a 12 h/12 h light/dark cycle (lights on at 04:00 h) in a temperature (23°C) and humidity (mean 50%, SD 10%) controlled room. All body weight measurements were made just prior to the start of the dark cycle.\n(§2) Male DIO Sprague Dawley rats (n = 24) were generated as outlined above and were 644.5 g (50 g) at the start of drug treatment. The animals were divided into three treatment groups (n = 8 each) balanced for body weight, body weight gain during baseline, food intake, and Lee Index [body weight^(1/3)/snout to anus length (mm)] ([Lee, 1929]; [Simson and Gold, 1982]) as an indicator of adiposity (Figure 2). In a subset of the animals (n = 5 per group, balanced for prior mentioned criteria), Mini-Mitter transponders (PDT-4000 E-Mitter, Respironics Inc.) were implanted posterior to the left scapula at least 9 days prior to start of baseline measures to ensure sufficient recovery time. Body temperature and gross motor activity were continuously recorded via these transponders. […] High fat diet and water were provided ad libitum and intake was recorded with daily hopper and water bottle weighs at time of body weight assessment just prior to drug administration. Blood samples were taken at start of intervention by tail vein bleeding and via cardiac puncture under an isoflurane induced surgical plane of anesthesia at euthanasia. Animals were euthanized on treatment day 29, 4 h after receiving a dose of their assigned treatment, via decapitation under isoflurane anesthesia immediately following blood draw. Body composition was assessed on carcasses.\nFrom treatment day 8 on the doses were maintained to assess long-term efficacy at a therapeutically meaningful dose."}, "[3]": {"test": "Dose escalation: kaolin intake (pica, nausea/visceral malaise)", "type": "in vivo, male DIO Sprague Dawley rats", "experimental": "as §1\nSequential rounds of a 3-day baseline phase (vehicle treated), a 3-day treatment phase, and a washout phase (2–5 days as necessary) were tested. […] High fat diet was accessible to the rats from all but the last 6 h of the light cycle and water was provided ad libitum. This daily period of food restriction was used to prevent incidental feeding in the event animals were disturbed from their sleep by noise from surrounding rooms. To assess a potential pica response (nausea/visceral malaise) in animals, powdered kaolin (Sigma-Aldrich, K1512) was made available on drug treatment days with a restriction period similar to the high fat diet. Prior to the first experiment, rats were provided access to kaolin for 2 days so that they could familiarize themselves with it prior to start of testing. Food and kaolin intake were continuously recorded using AccuScan DietMax (currently OmniTech Electronics, Inc., Diet System) cages. The high fat diet was compressed in the food tray to form a solid block of food. This allows for more accurate meal size measurements by preventing the animals from removing entire pellets at time. All food and kaolin intake data were binned into 15-min intervals for analysis and the start of the 24-h food intake period aligned to the lights turning off in the animal room. Body weight was recorded, and treatment injections were administered just prior to the start of the dark cycle."}, "[4]": {"test": "Long-term: hormone and metabolic blood parameters", "type": "in vivo, male DIO Sprague Dawley rats", "source_text": "as §2, with “Animals were euthanized on treatment day 29, 4 h after receiving a dose of their assigned treatment, via decapitation under isoflurane anesthesia immediately following blood draw.” left out\nCommercially available enzyme-linked immunosorbent assays (ELISA) were used for quantitative assessment of leptin (MilliporeSigma, Burlington, MA) and insulin (MilliporeSigma, Burlington, MA); all with intra-assay CV < 4%. […]"}, "human V2 receptor": {"target": "T1, human V2 receptor (Homo sapiens, UniProt P30518)", "T1 construct": "expressed in transfected cells; host or cells: CHO cells", "T1 sequence (P30518 whole entry)": "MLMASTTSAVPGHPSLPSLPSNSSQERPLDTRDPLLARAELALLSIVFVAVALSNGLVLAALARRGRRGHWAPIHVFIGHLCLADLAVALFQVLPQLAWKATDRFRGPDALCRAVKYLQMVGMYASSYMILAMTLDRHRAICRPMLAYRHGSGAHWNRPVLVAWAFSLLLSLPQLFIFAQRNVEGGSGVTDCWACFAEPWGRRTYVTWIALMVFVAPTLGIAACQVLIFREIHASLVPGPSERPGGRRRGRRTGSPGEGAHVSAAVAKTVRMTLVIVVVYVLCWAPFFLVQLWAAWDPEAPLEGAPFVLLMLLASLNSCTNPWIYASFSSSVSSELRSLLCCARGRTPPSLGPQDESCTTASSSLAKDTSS", "test": "V2R agonist activity, cAMP production by HTRF, stably transfected CHO cells", "type": "cell-based", "conditions": "HTRF detection, read-out: hV2R, EC50", "experimental": "V2R: Evaluation of the agonist activity of compounds at the human V2 receptor expressed in stably transfected CHO cells was conducted by measuring their effects on cAMP production using the HTRF detection method ([Cotte et al., 1998])."}, "[5]": {"test": "Long-term: gross motor activity and body temperature (Mini-Mitter transponders)", "type": "in vivo, male DIO Sprague Dawley rats", "conditions": "28-day study, n = 5 per group; first 12 days analysed", "source_text": "as §2\nFor comparisons of mean longitudinal changes in body temperature and activity, only the first 12 days of treatment, divided into three 4-day phases, were included in the analysis. These 4-day phases allowed for analyses to consider the ASK1476 dose titration."}, "[6]": {"conditions": "ref Modi et al., 2016, cited from earlier work", "source_text": "This property allows for reduction of the free fraction of ASK1476 available for enzymatic degradation. The pharmacokinetics study protocol for ASK1476 in mice and rats was described before ([Modi et al., 2016])."}},
  "note": "“Also recorded” adds a separate entry of the source. Read-outs that look alike come from different tables or passages of the source. Positions of bridges follow the written chain, without caps; N, C: chain ends. Residues, ends and D or L forms follow the SMILES beside them. Groups on a side chain read outwards from the residue. *: point of attachment. PEG8 = NCCOCCOCCOCCOCCOCCOCCOCCOCCC(=O)O; Palmitoyl = CCCCCCCCCCCCCCCC(=O)*",
  "data": [
    {"smiles": "CCCCCCCCCCCCCCCC(=O)NCCOCCOCCOCCOCCOCCOCCOCCOCCC(=O)NCCCC[C@H](NC(=O)CNC(=O)[C@@H]1CSSC[C@H](N)C(=O)N[C@@H](Cc2ccc(O)cc2)C(=O)N[C@@H]([C@@H](C)CC)C(=O)N[C@@H](CCC(N)=O)C(=O)N[C@@H](CC(N)=O)C(=O)N1)C(=O)NCC(N)=O", "note": "[ASK1476] (H-CYIQNCGK([PEG8-Palmitoyl])G-NH2; disulfide 1-6)", "values": [
      {"measurement": "death", "setting": "Toxicity / mortality; 150 nmol/kg intraperitoneal, unpublished dosing experiment", "value": "death of a rat"},
      {"measurement": "death", "setting": "Toxicity / mortality; 300 nmol/kg daily sc, after third dose, cause of death not established", "value": "one rat was found dead"},
      {"measurement": "half-life vs OXT", "setting": "[1]", "value": "increased half-life"},
      {"measurement": "plasma protein binding vs OXT", "setting": "[1]", "value": "increased plasma protein binding"},
      {"measurement": "weight stability during final 20 days", "setting": "[2]", "value": "remained weight stable"},
      {"measurement": "relationship between kaolin consumption and baseline normalized food intake", "setting": "[3]; ASK1476 6, 15, 30, 60, 120 and 300 nmol/kg", "value": "no significant association"},
      {"measurement": "visceral malaise signal (notably high kaolin intake in a few animals)", "setting": "[3]; ASK1476 dosing spectrum", "value": "may result in visceral malaise in a subset of animals"},
      {"measurement": "kaolin intake of several animals at higher doses", "setting": "[3]; ASK1476 ≥ 30 nmol/kg/d, several animals, not seen with OXT", "value": "> 4", "unit": "g/day"},
      {"measurement": "kaolin intake, trend with dose", "setting": "[3]; increasing ASK1476 doses, not significant", "value": "increasing trend"},
      {"measurement": "kaolin intake at low doses", "setting": "[3]; low doses, sc once daily", "value": "below 4 g/d"},
      {"measurement": "kaolin intake, effect of treatment", "setting": "[3]; sc once daily, ASK1476 6-300 nmol/kg F(1.80, 12.59) = 2.26, p = 0.148, OXT 20-1200 nmol/kg F(1.51, 10.52) = 1.73, p = 0.223", "value": "no significant effect of treatment"},
      {"measurement": "serum ALT, difference vs vehicle", "setting": "[4]; ASK1476, 95% CI −2.1 to −13.2, p = 0.006", "value": "−7.6", "unit": "U/L"},
      {"measurement": "ALT, post-treatment", "setting": "[4]; after 28-day Tx, serum, n = 8, Mean ± SD, ASK1476 ** p < 0.01 vs vehicle, ANOVA p 0.009", "value": "0.440.06** μmol/(sL)"},
      {"measurement": "EC50", "setting": "human V2 receptor", "value": 0.36, "unit": "nM"},
      {"measurement": "locomotor activity or body temperature", "setting": "[5]", "value": "no effects were detected on locomotor activity or body temperature; also recorded: did not find any evidence"},
      {"measurement": "half-life vs OXT", "setting": "[6]; iv, rats, compared to OXT", "value": "extended half-life"},
      {"measurement": "plasma clearance vs OXT", "setting": "[6]; iv, rats, compared to OXT", "value": "reduced plasma clearance"},
      {"measurement": "steady-state volume of distribution vs OXT", "setting": "[6]; iv, rats, compared to OXT", "value": "increased steady-state volume of distribution"},
      {"measurement": "brain to plasma concentration ratio (distribution)", "setting": "[6]; sc, depot formulation", "value": "almost exclusive compartmentalization of the molecule to plasma"},
      {"measurement": "concentrations in the central compartments", "setting": "[6]; sc, depot formulation", "value": "only minimal concentrations detectable"},
      {"measurement": "plasma exposure", "setting": "[6]; sc, depot formulation", "value": "prolonged exposure in the plasma"},
      {"measurement": "total maximal plasma concentration (Cmax)", "setting": "[6]; sc, mice, at 2 h post-dose", "value": "improved total maximal plasma concentration (Cmax)"},
      {"measurement": "half-life", "setting": "[6]; sc, mice", "value": "extended half-life"}
    ]}
  ]
}
